From US12344583B2, “Solid psilocin salts” (LOBE SCIENCES LTD., priority 2022, dated 2025) come the findings set out here.

Each structure is given as a SMILES string. “And” between values parts separate entries of the source, which are not always exact repeats. Identical values can stand only once. “Also recorded” adds a separate entry of the source.

Data set [1] in a line: Stability studies on psilocin mucate capsule (appearance, HPLC assay and impurities, TM-022-0392). It counts as physicochemical. The procedure:
Additional stability studies were performed on the solid psilocin form psilocin mucate (also known as psilocin mucic acid salt or conjugate or psilocin galactaric acid salt or conjugate) capsule.
Appearance was evaluated by viewing of the sample on a watchglass over a black and white background.
Assay conditions for Test/Method TM-022-0392 assessing stability and impurities were as follows: • Mobile phase: MPA: 945 mL water, 5 mL H3PO4, pH to 5.7 with • NaOH; MPB: Acetonitrile • Diluent: 80:20 Water: MeOH • Standard: 0.4 mg/mL Psilocin Mucic RS in Diluent • Sample: 0.4 mg/mL Psilocin Mucic API in Diluent HPLC Conditions are depicted in Table 3.
Calculations were against a bracketing external standard.
Identity of psilocin mucate was verified by ultraviolet (UV) assessment, wherein the UV spectrum of the main peak in the standard matched the UV spectrum of the main peak in the sample and by retention time wherein the retention time ratio was 0.98-1.02.

In data set [2] the test system is healthy subjects. The data set can be described thus: Phase one open-label single-dose study of psilocin mucate capsules: MMSE and mood assessment by psychiatrist. Particulars: single oral capsule 4.05 mg psilocin mucate (equivalent to 2 mg psilocin).

Take `CN(C)CCc1c[nH]c2cccc(O)c12.O=C(O)[C@@H](O)[C@H](O)[C@H](O)[C@@H](O)C(=O)O` [psilocin mucate]: the “Total Impurities” value was less than 0.05% in data set [1] (7 Months) and 0.08% in data set [1] (Initial). The “Impurities TM-22-0392, individual impurities” value in data set [1] (7 Months, all impurities, area percent) is on record as “All <0.05%”; in data set [1] (Initial, impurity at RRT I.12, area percent) it was “RRT I.12/0.08%”. Also, the “Assay TM-22-0392 (% Label Claim)” value in data set [1] (7 Months, specification 90.0-110.0%) is 101,7%. Also, in data set [2] (one statement per subject), the “FEELING STATUS” value is listed as “Less anxious, better mood, increase their appetite; also recorded: Feel little beet happier, better energy; also recorded: Feel calm, less thoughts, happier mood; also recorded: Euphoric, better mood, it helps with life stress; also recorded: Euphories, better mood, sleepy, feel time is; also recorded: Sleepy, better thoughts, less worried in general; also recorded: Did not feel change in mood but feeling cold; also recorded: More relaxed, want to drink sweet tea, better; also recorded: Better mood, feels hyper sexual”. The MMSE in data set [2] (one value per subject, below 25 expected for a hallucinogenic substance) is 29 (2×) and 30 (3×) and 28 (3×) and 27 (2×).
